Patent publication US10472663B2, “Procedure for the rapid determination of bacterial susceptibility to antibiotics that inhibit protein synthesis” (ABM TECHNOLOGIES, LLC, priority 2015, dated 2019)

Legend:
Format in all cases: cell-based
Pseudomonas aeruginosa [1] = test: Variant Micromax assay of cell enlargement by ceftazidime after tobramycin (Example 7)
Method: As an example, two strains of Pseudomonas aeruginosa exponentially growing in Mueller-Hinton broth were assayed. These strains were both susceptible to the β-lactam ceftazidime, which inhibits peptidoglycan synthesis. One strain was susceptible and the other resistant to the aminoglycoside tobramycin (an inhibitor of protein synthesis). For the purpose of rapidly distinguishing the susceptible and the resistant strain to tobramycin each strain was subjected to four treatments.
A portion of each strain was incubated with tobramycin at 4 μg/ml (the CLSI breakpoint of susceptibility) for 75 minutes. An assay of this portion is depicted at FIGS. 31 and 34. Another portion of each strain was incubated with ceftazidime at 0.5 μg/ml for 60 minutes. An assay of this portion is depicted at FIGS. 32 and 35. Still another portion of both strains was incubated with tobramycin at 4 μg/ml for 15 minutes followed by ceftazidime at 0.5 μg/ml for 60 minutes, without removing the tobramycin. Assays of these strains can be seen at FIGS. 33 and 36, respectively. A final portion of each strain was not treated with either antibiotic.
After incubation with the antibiotics, cells were processed using a variant Micromax technology to visualize the enlargement or not of the bacteria. Samples from each culture were immersed in an agarose microgel on a slide, dried, stained with a high sensitive fluorochrome for DNA like SYBR Gold and visualized under fluorescence microscopy to visualize cell shape and size.

Pseudomonas aeruginosa [2] = test: Variant Micromax assay of cell wall damage by meropenem after tobramycin (Example 5); conditions: for release of nucleoids (cell wall damage): tobramycin 4 μg/ml 15 min followed by meropenem 0.2 μg/ml 60 min
From the text: As an exemplification of this principal, FIGS. 19-24 illustrates assays of two strains of Pseudomonas aeruginosa exponentially growing in Mueller-Hinton broth. Both strains were both susceptible to the β-lactam meropenem, which inhibits peptidoglycan synthesis. One strain was susceptible (FIGS. 19-21) and the other resistant (FIGS. 22-24) to the aminoglycoside tobramycin (inhibitor of protein synthesis).
For the purpose of rapidly distinguishing susceptible and resistant (i.e. non-susceptible) strains to tobramycin each strain was subjected to four treatments. A portion of each strain was incubated with tobramycin at 4 μg/ml for 75 min (FIGS. 19 and 22). The dose utilized, was indicated by the CLSI as the breakpoint of susceptibility to tobramycin. FIGS. 20 and 23 illustrate an assay from another portion of each strain, which was incubated with Meropenem at 0.2 μg/ml for 60 min. FIGS. 21 and 24, illustrate assays from still another portion of both strains which was incubated with tobramycin at 4 μg/ml for 15 min followed by meropenem at 0.2 μg/ml for 60 min, without removing the tobramycin. Still another portion of both strains was maintained without the addition of either antibiotic.
After incubation cells were processed using a variant Micromax technology to visualize the affectation or not of the cell wall based on the release or not of the nucleoids contained inside the bacteria. In the same manner described previously, samples from cells from the culture are immersed in an agarose microgel on a slide and incubated with a specific lysing solution that removes the cell wall only in those bacteria whose peptidoglycan was affected, thus releasing in the microgel the nucleoids contained inside. […] The processed bacteria in microgel are dried, stained with a high sensitive fluorochrome for DNA like SYBR Gold and visualized under fluorescence microscopy.

Escherichia coli = test: Micromax assay of mitomycin C-induced DNA fragmentation after tobramycin (Example 2); conditions: for DNA fragmentation of nucleoids: tobramycin 4 μg/ml 30 min followed by mitomycin C 50 μg/ml 60 min
Method: FIGS. 7-9 depict a TG1 strain susceptible to the aminoglycoside tobramycin, an inhibitor of protein synthesis, and mitomycin C, an agent which induces DNA damage. The other strain illustrated in FIGS. 10-12 was a clinical isolate resistant to tobramycin.
One portion of both bacterial strains was incubated with tobramycin at 4 μg/ml for 90 min (FIGS. 7 and 10), a dosage indicated by the CLSI as the breakpoint of susceptibility to tobramycin in the standard antibiogram based on microdilution. Another portion of both strains was incubated with mitomycin C at 50 μg/ml for 60 min (FIGS. 8 and 11). Still another portion of both strains was incubated with tobramycin at 4 μg/ml for 30 min followed by mitomycin C at 50 μg/ml for 60 min, without removing the tobramycin (FIGS. 9 and 12). A final portion was left with no antibiotic.
After incubation, cells were processed using a variant of the Micromax technology to visualize nucleoids, i.e. bacterial chromosomal DNA, in all the cells of the population. Samples from cells from the culture are immersed in an agarose microgel on a slide and incubated with a specific lysing solution to remove the cell wall in all the cells and release in the microgel the nucleoids contained inside the bacteria. These are dried, stained with a highly sensitive fluorochrome for DNA like SYBR Gold and visualized under fluorescence microscopy, Nucleoids from E. coli obtained using the Micromax assay are represented in FIGS. 7-12, FIGS. 7-9 correspond to a strain susceptible to tobramycin (TG1) and FIGS. 10-12 to a strain resistant to tobramycin.

For `NC[C@H]1O[C@H](O[C@H]2[C@H](O)[C@@H](O[C@H]3O[C@H](CO)[C@@H](O)[C@H](N)[C@H]3O)[C@H](N)C[C@@H]2N)[C@H](N)C[C@@H]1O` [tobramycin], the cell enlargement (Pseudomonas aeruginosa [1]; tobramycin 4 μg/ml 15 minutes followed by ceftazidime 0.5 μg/ml 60 minutes, tobramycin-resistant strain) was “bacteria appeared enlarged”, the “bacterial shape and size” value (Pseudomonas aeruginosa [1]; tobramycin alone 4 μg/ml 75 minutes, both strains) was “does not affect the bacterial shape and size” and the “release of nucleoids (cell wall damage)” value (Pseudomonas aeruginosa [2]; tobramycin-resistant strain) was “the nucleoids were released”. For the same compound, the “release of nucleoids (cell wall damage)” value (Pseudomonas aeruginosa [2]; tobramycin-susceptible strain) was “unchanged, non-lysed bacteria”, the “cell wall lysis and bacterial shape” value (Pseudomonas aeruginosa [2]; tobramycin alone 4 μg/ml 75 min, both strains) was “does not result in cell wall lysis” and the “DNA fragmentation of nucleoids” value (Escherichia coli; tobramycin-resistant clinical isolate) was “the DNA remained fragmented”. The “DNA fragmentation of nucleoids” value (Escherichia coli; tobramycin-susceptible TG1 strain) was “nucleoids without observable DNA fragmentation” and the modification of nucleoids (Escherichia coli; tobramycin alone 4 μg/ml 90 min, both strains) was “does not result in modifications of the nucleoids”.
